From PubChem BioAssay (NCI)
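96-well plates; 48 h exposure; 5 concentrations. Endpoints by linear interpolation between flanking doses. Not reached: highest tested concentration assigned. Abbreviation: GI50, concentration required for 50% inhibition of growth. TGI marks complete inhibition of growth.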

How the values were obtained:
Test in all cases: NCI-60 cell line screen, 48 h
[1] = tested on: ACHN renal
[2] = tested on: CAKI-1 renal
[3] = tested on: COLO 205 colon
[4] = tested on: HCT-15 colon
[5] = tested on: NCI-H522 lung
[6] = tested on: OVCAR-3 ovarian
[7] = tested on: OVCAR-4 ovarian
[8] = tested on: SF-539 CNS
[9] = tested on: SN12C renal
[10] = tested on: TK-10 renal

SMILES | TGI [1] [µM] | TGI [2] [µM] | TGI [3] [µM] | TGI [4] [µM] | TGI [5] [µM] | TGI [6] [µM] | TGI [7] [µM] | TGI [8] [µM] | TGI [9] [µM] | TGI [10] [µM] | GI50 [1] [µM] | GI50 [2] [µM] | GI50 [3] [µM] | GI50 [4] [µM] | GI50 [5] [µM] | GI50 [6] [µM] | GI50 [7] [µM] | GI50 [8] [µM] | GI50 [9] [µM] | GI50 [10] [µM]
C=CC(=O)N1C/C(=C\c2ccc(Cl)c(Cl)c2)C(=O)/C(=C/c2ccc(Cl)c(Cl)c2)C1 | 0.343 | 1.17 | 0.243 | 0.201 | 0.302 | 0.219 | 0.122 | 0.367 | 0.302 | 2.57 |  |  |  |  |  |  |  |  |  | 
CN(C)Cc1ccc(-c2cc3onc(-c4ccccc4)c3c(=O)n2C)cc1 | > 100 | > 100 | 41.1 | 50.2 | 39.5 | > 100 | > 100 | 46.8 | > 100 | 53.1 |  |  |  |  |  |  |  |  |  | 
COc1cc2c3c(n(CCCN)c(=O)c2cc1OC)-c1ccc([N+](=O)[O-])cc1C3=O | 16.7 | 19.4 | 22.8 | 19 | 10.8 | 37.5 | 33.7 | 14.9 | 27.6 | 41.4 | 5.2 | 4.7 | 10.1 | 5.83 | 0.489 | 16.5 | 11.5 | 3.76 | 11.7 | 20.7
CN(C)C(=O)Nc1nc2cc(Cl)c(Cl)cc2[nH]1 | > 100 | > 23.5 | 5.08 | > 100 | 4.14 | 1.94 | > 100 | 6.05 | > 100 | > 100 | 3.11 | 0.525 | 0.661 | 0.546 | 0.38 | 0.393 | 1.61 | 0.537 | 1.36 | 4.71
Oc1c(C(Nc2ccccc2Br)c2ccccc2)ccc2cccnc12 (stereo not given) | > 100 | 54.3 | 36.6 | 27.3 | 16.6 | 23.9 | 55 | 13.5 | 35.1 | 46.3 | 2.04 | 1.36 | 2.75 | 0.672 | 2.39 | 5.37 | 1.3 | 3.65 | 2.68 | 3.34
CN(C)c1ccc(Nc2c3ccccc3nc3ccccc23)cc1 | 2.27 | 2.33 | 2.16 | 3.49 | 2.52 | 3.22 | 5.44 | 8.33 | 6.76 | 4.19 | 0.532 | 0.486 | 0.82 | 0.959 | 0.685 | 1.22 | 1.26 | 1.72 | 1.03 | 0.937
